BindingDB's records for doi:10.1016/s0968-0896(97)00172-7 (Universit&Agrave, 1997)

Columns and labels:
[1] = target: Adenosine receptor A2a (Rattus norvegicus, UniProt P30543)
[2] = target: T1, Adenosine receptor A1 (Rattus norvegicus, UniProt P25099)
T1 sequence (P25099 whole entry): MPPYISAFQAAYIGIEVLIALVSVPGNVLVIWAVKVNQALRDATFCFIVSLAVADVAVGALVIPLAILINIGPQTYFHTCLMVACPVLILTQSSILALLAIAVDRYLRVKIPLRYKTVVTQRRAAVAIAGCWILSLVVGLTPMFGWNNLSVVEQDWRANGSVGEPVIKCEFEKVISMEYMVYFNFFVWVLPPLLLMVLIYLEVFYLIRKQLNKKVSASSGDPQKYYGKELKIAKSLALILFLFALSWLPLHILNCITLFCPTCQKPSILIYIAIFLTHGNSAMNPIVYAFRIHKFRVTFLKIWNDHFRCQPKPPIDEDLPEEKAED

Chain of Adenosine receptor A2a (P30543 whole entry): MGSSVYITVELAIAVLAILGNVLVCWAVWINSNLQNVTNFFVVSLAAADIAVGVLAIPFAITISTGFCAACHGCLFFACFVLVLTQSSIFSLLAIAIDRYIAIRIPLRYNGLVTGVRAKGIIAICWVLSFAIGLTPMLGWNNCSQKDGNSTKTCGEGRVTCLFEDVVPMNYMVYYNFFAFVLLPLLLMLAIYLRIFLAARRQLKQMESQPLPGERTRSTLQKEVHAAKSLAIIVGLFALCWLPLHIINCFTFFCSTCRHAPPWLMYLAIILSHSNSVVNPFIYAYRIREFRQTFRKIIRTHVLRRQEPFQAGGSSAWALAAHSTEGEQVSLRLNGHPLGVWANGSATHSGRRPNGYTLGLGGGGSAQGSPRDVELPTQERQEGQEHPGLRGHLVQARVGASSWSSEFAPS

Row | Ki [1] [nM] | Ki [2] [nM] | SMILES
1 | 0.9 | 2.5 | CCNC(=O)C1OC(n2cnc3c(N)nc(C#CC(O)c4ccccc4)nc32)C(O)C1O (stereo not drawn) [R,S-PHPNECA]
2 | 0.5 | 4 | CCNC(=O)[C@@H]1OC(n2cnc3c(N)nc(C#CC(O)c4ccccc4)nc32)[C@H](O)[C@@H]1O (stereo partly drawn) [S-PHPNECA]
3 | 2.2 | 130 | CCCCC#Cc1nc(N)c2ncn([C@@H]3O[C@H](C(=O)NCC)[C@H](O)C3O)c2n1 (stereo partly drawn) [(2S,3R,5R)-5-[6-amino-2-(hex-1-yn-1-yl)-9H-purin-9-yl]-N-ethyl-3,4-dihydroxyoxolane-2-carboxamide]
4 | 2.6 | 5.9 | CCNC(=O)[C@H]1OC(n2cnc3c(N)nc(C#CC(O)c4ccccc4)nc32)[C@@H](O)[C@H]1O (stereo partly drawn) [5-[6-Amino-2-(3-hydroxy-3-phenyl-prop-1-ynyl)-purin-9-yl]-3,4-dihydroxy-tetrahydro-furan-2-carboxylic acid ethylamide]
